Assay results: patent publication US12605335B2, “Triptolide lignocerate, liposome thereof and preparation method therefor” (SHANGHAI WEI ER BIOPHARMACEUTICAL TECHNOLOGY CO., LTD., priority 2022, dated 2026)
Like-named read-outs stand apart in the source and are kept apart here.

How the values were obtained:
[1] = Log P determination by shake-flask; assay type: physicochemical
Description: The log P was determined by shake-flask. First, a certain amount of water and n-octanol are added into the funnel, shaken and separated to obtain water-saturated n-octanol solution and n-octanol saturated aqueous solution; quantify and accurately weigh triptolide and its derivatives in a volumetric bottle containing water-saturated n-octanol solution, and dissolve by ultrasound, drop water-saturated n-octanol solution, dilute and volume. Take 0.5 mL of this solution in a 5 mL volumetric flask, dilute with MeOH and volume. The concentration of triptolide and its derivatives was determined by the assay method; take the above solution to the Xilin bottle, add 10 times the amount of n-octanol saturated aqueous solution, and shake in a bath of 37° C. and 75 rpm for one day, so that triptolide and its derivatives reach equilibrium state in aqueous and organic phase. The n-octanol phase was transferred into a centrifuge tube, centrifuged at 3000 rpm for 10 min, precision measuring n-octanol phase in a volumetric flask, diluted 10 times with MeOH solution, and measured the content of triptolide and its derivatives in n-octanol phase. Drug concentration in the aqueous phase=total drug concentration-drug concentration in the n-octanol phase.
[formula] 3. The Content Determination Method of Triptolide and Its Derivatives in This Embodiment is Determined by High-Performance Liquid Chromatography (2020 Edition, Chinese Pharmacopoeia's Fourth Part Rule 0512), as Follows: • Chromatographic conditions: using chromatographic column: Agilent ZORBAX Eclipse Plus C18 column (4.6 mm×250 mm, 5 μm), mobile phase: 100% MeOH, column temperature: 30° C., flow rate: 1.0 mL/min, sample input: 20 μL, detection wavelength: 218 nm. • Preparation of control solution: accurately weighing triptolide and its derivatives 10 mg, placed in a 10 mL volumetric flask, dissolved with methanol and diluted to the scale line, shake well, as the control reserve solution. • Preparation of standard curve: Reserve solutions of different volumes of control were diluted to produce series solutions with mass concentrations of 5.00, 10.00, 25.00, 50.00, 100.00, 250.00, and 500.00 μg/mL, respectively. 20 μL of each sample was injected into the HPLC system and analyzed according to the “Chromatographic Conditions”. With the concentration C (μg/mL) as the abscissa and the peak area A as the ordinate, the linear regression is obtained. • Assay: accurately absorb 1 mL of each sample solution of triptolide and its derivatives to a 5 mL volumetric flask, dilute with methanol to the scale line, and vortex-mix evenly. 20 μL was injected into the HPLC chromatogram, recorded and calculated by the peak area according to the standard curve method. 4. Experimental Results

[2] = system: Panc 02 pancreatic cancer model; test: In vivo antitumor effect, Panc 02 pancreatic cancer model (Example 5); set-up: species or system mouse; conditions: ICR mice, tail vein 0.6 mg/kg (per TP) every two days, 4 doses
Description: Mouse pancreatic cancer Panc02 cells were cultured in DMEM medium at 37° C., 5% CO2 and passaged on average every two days. During the log growth phase, the cell concentration was adjusted to 1×10^7/mL, and Panc 02 cells were subcutaneously seeded in the right axilla of ICR mice under sterile conditions to establish a mouse pancreatic cancer model. When the mouse tumor volume was grown to 100-300 mm^3, the mice were randomly divided into 6 groups according to the tumor volume, with 6 mice in each group. The blank, TP (DMSO), TP-SA, TP-EA, TP-BA, and TP-LA were set. The mouse tail vein injection was 0.6 mg/kg (per TP), and the blank group was given 0.2 mL saline every two days for a total of 4 doses. The mice were killed on the third day of drug withdrawal, the mice were weighed, the tumor body was dissected and weighed, and the tumor suppression rate was calculated.
[formula] 3. Anti-Tumor Effect

[3] = Pharmacokinetic study in rats; conditions: male, Sprague-Dawley (SD), rat, in vivo, iv, 0.6 mg/kg
Description: Rat tail vein dose of equimolar TP 0.6 mg/kg, blood collection time point set at 6 min, 12 min, 18 min, 30 min, 48 min, 1 h, 1.5 h, 2 h, 2.5 h, 3 h, 5 h, 12 h, 24 h, 72 h, 5 SD rats from each group (♂).
Sample processing and analysis method: take plasma with 4 times the amount of methanol to precipitate protein, centrifugation at 12000 r/min for 10 min; remove the supernatant to remove methanol, extract the remaining residue with 400 μL methyl-t-butyl ether twice, centrifugation at 12000 r/min for 10 min. The organic extraction phase was collected, concentrated and dried, 100 μL of methanol was added for redissolution, and the supernatant was centrifuged into the LC-MS/MS system to calculate the plasma concentration by using DAS 2.0 software.

[4] = system: Panc 02 pancreatic cancer model; test: In vivo antitumor effect, Panc 02 pancreatic cancer model (Example 55); set-up: species or system mouse; conditions: ICR mice, 4 doses
Description: Panc 02 pancreatic cancer cells were cultured in DMEM medium at 37° C. with 5% CO2. Cells were passaged every two days during logarithmic growth phase until reaching a concentration of 1×10^7 cells/mL. Under sterile conditions, Panc 02 cells were subcutaneously implanted into the right axilla of ICR mice to establish the pancreatic cancer model. Once the tumor volume grew to 100-300 mm^3, mice were randomly divided into 6 groups of 6 animals each. Groups included blank control group, TP (DMSO) solution group, Minnelide solution group, and TP-LA liposome dose groups. Drugs were administered via tail vein injection at a dose of 0.6 mg/kg (based on TP) every other day for a total of 4 doses. On the third day after the last administration, mice were euthanized. Body weights were recorded, tumors were excised and weighed, and tumor inhibition rates were calculated.
[formula] 3. Antitumor Effects

[5] = in vivo; triptolide released via in vivo conversion of the liposomes, or triptolide itself; cited from earlier work
[6] = CN106946975A; cited from earlier work
tumor = conditions: Huang 2020; cited from earlier work
ear vein = test: Vascular irritation evaluation, rabbit ear vein; assay type: in vivo; conditions: rabbits, ear vein 0.22 mg/kg (based on TP), daily for three days, histology 48 hours after last administration
Description: […] (weighing 1.5-2.0 kg) were randomly divided into 6 groups. Each group received intravenous injection via the right ear vein of either saline solution, TP-LA liposomes prepared according to Examples 35, 42, and 53, TP (DMSO) solution, or Minnelide solution, at a dose of 0.22 mg/kg (calculated based on TP), administered at a rate of 1 mL/min. Simultaneously, saline of equal volume was administered via the left ear vein as a control. This procedure was repeated daily for three consecutive days.
During each day of administration, the animals' behavior and pathological changes at the injection site were observed macroscopically. Euthanasia was performed 48 hours after the last administration. Tissue samples were collected approximately 2.0 cm towards the central end from the injection site on the ear vein, fixed in 10% paraformaldehyd solution, dehydrated using an ethanol gradient, embedded in paraffin, and sectioned into slices stained with hematoxylin and […]. All samples were examined using a BX43-DP21 light microscope (Olympus Corporation, Japan), and pathological changes were assessed.

advanced solid tumors = conditions: patients with advanced solid tumors, intravenous once a week; cited from earlier work
[7] = shake-flask, n-octanol/water, 37° C., read-out: log P
[8] = tail vein 0.6 mg/kg (based on TP) every other day

Structure (SMILES): CCCCCCCCCCCCCCCCCCCCCC(=O)O[C@@H]1[C@@]2(C(C)C)OC2[C@@H]2O[C@]23[C@]12O[C@H]2CC1C2=C(CC[C@@]13C)C(=O)OC2 (stereo partly shown) [Triptolide behenate, triptolide behenate]
- logP at 1 day [1, 7]: 2.78 ± 0.04

Structure (SMILES): CC(C)[C@]12O[C@H]1[C@@H]1O[C@]13[C@]1(O[C@H]1C[C@H]1C4=C(CC[C@@]13C)C(=O)OC4)[C@@H]2O [Triptolide]
- logP at 1 day [1]: 0.52 ± 0.01
- Mean tumor weight [2]: 0.517 ± 0.097 g
- Tumor Suppression rate [2]: 41.12%
- AUC(0-inf) [3]: 0.337 ng·h/mL
- Cmax [3]: 0.698 ng/mL
- MRT [3]: 32.8 min
- [formula] (half-life) [3]: 13.2 ± 2.4 min
- Mean tumor weight [4, 8]: 0.417 ± 0.097 g
- Tumor inhibition rate [4, 8]: 40.26%
- biological half-life of triptolide [5]: 15 min
- liposomal encapsulation rate [6]: less than 50%
- Tumor inhibition rate (tumor): 17.67%

Structure (SMILES): CCCCCCCCCCCCCCCCCCCCCCCC(=O)O[C@@H]1[C@@]2(C(C)C)OC2[C@@H]2O[C@]23[C@]12O[C@H]2CC1C2=C(CC[C@@]13C)C(=O)OC2 (stereo partly shown) [Triptolide lignocerate, triptolide lignocerate]
- logP at 1 day [1, 7]: 3.12 ± 0.03

Structure (SMILES): CCCCCCCCCCCCCCCCCC(=O)O[C@@H]1[C@@]2(C(C)C)OC2[C@@H]2O[C@]23[C@]12O[C@H]2CC1C2=C(CC[C@@]13C)C(=O)OC2 (stereo partly shown) [Triptolide stearate, triptolide stearate]
- logP at 1 day [1, 7]: 2.41 ± 0.04

Structure (SMILES): CC(C)[C@]12O[C@H]1[C@@H]1O[C@]13[C@]1(O[C@H]1C[C@H]1C4=C(CC[C@@]13C)C(=O)OC4)[C@@H]2OCOP(=O)(O)O [Minnelide]
- Body weight change [4, 8]: 1.09%
- Mean tumor weight [4, 8]: 0.222 ± 0.029 g
- Tumor inhibition rate [4, 8]: 68.19%
- tail vein irritation after administration ([4]; tail vein 0.6 mg/kg (based on TP)): varying degrees of tail swelling and ulceration
- vascular irritation, pathological changes of ear vein (ear vein): congestion and some instances of bleeding

Structure (SMILES): CC(C)[C@]12O[C@H]1[C@@H]1O[C@]13[C@]1(O[C@H]1C[C@H]1C4=C(CC[C@@]13C)C(=O)OC4)[C@@H]2OC(=O)CCC(=O)[O-].[Na+] [PG490-88Na]
- grade of most frequently reported adverse reactions (anemia, malaise, nausea, vomiting, diarrhea, constipation) (advanced solid tumors): 1-2
- interindividual variability in pharmacokinetic properties (advanced solid tumors): 2- to 3 fold
